Data published in patent publication US11649477B2, “Assays and reagents for antimicrobial susceptibility testing” (SELUX DIAGNOSTICS, INC., priority 2018, dated 2023).
≈ marks a conversion by molar mass, not a printed value.

Tests used:
E. coli = E. coli strain tested; values as generally found; cited from earlier work
S. aureus = assay: Rapid AST, vancomycin dilution series read by Eu-cryptate-diamine surface binding (TRF); assay type: cell-based; settings: Staphylococcus aureus, CTAB pretreatment, CTAB removed before probe, TRF 330/615 nm, read-out: minimum inhibitory concentration (MIC)
Protocol: S. aureus were prepared by diluting colonies into saline to reach a McFarland value of 0.5, which was verified using a spectrophotometer, diluted, and inoculated into 96-well plates containing cation-adjusted Mueller Hinton broth and doubling dilutions of vancomycin. Plates were incubated at 35° C., shaking at 150 rpm for 3 hours, after which 10 μl of Alamar Blue were added to each well and plates were incubated for 1 additional hour. After this incubation, 100 μl of a 0.03% Cetyltrimethylammonium bromide with 0.1M EDTA solution was added to each well. The plates were placed on a shaker at 450 RPM for 10 minutes, followed by centrifugation at 2500×g for 2.5 minutes. The wells were aspirated and 100 μL PBS with 0.05% Tween-20 (PBST) or 100 μl of a 0.03% Cetyltrimethylammonium bromide with 0.1M EDTA solution was added back into the wells. Ten microliters of Eu-cryptate-diamine (5 ng/well) was added to each well and the plates were shaken for 10 minutes. The plates were then centrifuged, the wells aspirated, and 200 μL 1×PBST were added to each well. These steps were repeated twice. After the final wash, time-resolved fluorescence (TRF) for all wells was read at 330/615 nm.

P. mirabilis = assay: Anionic ratio (growth in colistin vs MHB, Alamar Blue fluorescence); assay type: cell-based; settings: 4 μg/ml colistin, Ex560/Em590
Protocol: (§1) P. mirabilis and K. pneumoniae were prepared by diluting colonies into saline to reach a McFarland value of 0.5, which was verified using a spectrophotometer, diluted, and inoculated into 96-well plates containing cation-adjusted Mueller Hinton broth and doubling dilutions of gentamycin (GEN) and ciproflaxin (CIP). Plates were incubated at 35° C., shaking at 150 rpm for 3 hours, after which 10 μl of Alamar Blue were added to each well and plates were incubated for 1 additional hour. After this incubation, Alamar Blue signal was read as the fluorescent signal Ex560/Em590. […] After the final wash, time-resolved fluorescence (TRF) for all wells was read at 330/615 nm.
(§2) The anionic ratios were calculated from the background subtracted fluorescent signal (Ex560/Em590) of bacteria grown in 4 μg/ml colistin divided by the background subtracted fluorescent signal of bacteria grown in MHB. […]

K. pneumoniae = assay: as above; assay type: cell-based; settings: 4 μg/ml colistin, Ex560/Em590
Protocol: as §1, §2

## CC[C@H]1OC(=O)[C@H](C)[C@@H](O[C@H]2C[C@@](C)(OC)[C@@H](O)[C@H](C)O2)[C@H](C)[C@@H](O[C@@H]2O[C@H](C)C[C@H](N(C)C)[C@H]2O)[C@](C)(O)C[C@@H](C)CN(C)[C@H](C)[C@@H](O)[C@]1(C)O [ATM, azithromycin]
E. coli
  MIC values: less than or equal to 0.25 μg/ml

## CN[C@H](CC(C)C)C(=O)N[C@H]1C(=O)N[C@@H](CC(N)=O)C(=O)N[C@H]2C(=O)N[C@H]3C(=O)N[C@H](C(=O)N[C@H](C(=O)O)c4cc(O)cc(O)c4-c4cc3ccc4O)[C@H](O)c3ccc(c(Cl)c3)Oc3cc2cc(c3O[C@@H]2O[C@H](CO)[C@@H](O)[C@H](O)[C@H]2O[C@H]2C[C@](C)(N)[C@H](O)[C@H](C)O2)Oc2ccc(cc2Cl)[C@H]1O [VAN, vancomycin]
S. aureus
  MIC: 2 mg/L (≈ 1.38 µM)

## colistin
P. mirabilis
  anionic ratio (background subtracted fluorescent signal in colistin divided by signal in MHB): 0.96
K. pneumoniae
  anionic ratio (background subtracted fluorescent signal in colistin divided by signal in MHB): −0.08
